BindingDB's records for doi:10.1124/jpet.102.040394 (Merck Sharp and Dohme Research Laboratories, 2002)

Assays:
[1] = target: Transient receptor potential cation channel subfamily V member 1 (Rattus norvegicus, UniProt O35433)
[2] = target: Transient receptor potential cation channel subfamily V member 1 (Homo sapiens, UniProt Q8NER1)
Transient receptor potential cation channel subfamily V member 1 (Homo sapiens, UniProt Q8NER1), sequence (Q8NER1 whole entry): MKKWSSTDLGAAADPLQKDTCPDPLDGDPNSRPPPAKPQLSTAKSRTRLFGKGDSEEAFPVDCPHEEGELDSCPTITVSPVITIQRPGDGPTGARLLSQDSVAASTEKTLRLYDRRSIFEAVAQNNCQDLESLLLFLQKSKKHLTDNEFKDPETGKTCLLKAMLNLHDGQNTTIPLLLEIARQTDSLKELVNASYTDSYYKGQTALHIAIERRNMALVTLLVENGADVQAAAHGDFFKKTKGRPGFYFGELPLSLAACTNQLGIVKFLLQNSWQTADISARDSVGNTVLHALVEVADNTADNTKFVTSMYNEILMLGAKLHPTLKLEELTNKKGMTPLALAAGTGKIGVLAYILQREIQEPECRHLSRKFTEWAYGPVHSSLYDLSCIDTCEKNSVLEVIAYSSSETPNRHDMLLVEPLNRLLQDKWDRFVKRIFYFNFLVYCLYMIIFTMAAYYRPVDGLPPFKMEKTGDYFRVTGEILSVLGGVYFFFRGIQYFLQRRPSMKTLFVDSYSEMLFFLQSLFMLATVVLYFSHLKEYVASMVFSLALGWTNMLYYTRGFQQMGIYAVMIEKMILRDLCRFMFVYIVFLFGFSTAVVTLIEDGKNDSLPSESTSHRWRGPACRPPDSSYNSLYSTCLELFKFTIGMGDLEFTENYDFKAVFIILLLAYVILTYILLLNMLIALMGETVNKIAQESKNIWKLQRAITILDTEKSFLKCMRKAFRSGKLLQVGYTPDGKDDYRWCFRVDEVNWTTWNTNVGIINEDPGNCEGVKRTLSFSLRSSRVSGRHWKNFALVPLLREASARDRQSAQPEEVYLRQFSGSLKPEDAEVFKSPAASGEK

Transient receptor potential cation channel subfamily V member 1 (Rattus norvegicus, UniProt O35433), sequence (O35433 whole entry): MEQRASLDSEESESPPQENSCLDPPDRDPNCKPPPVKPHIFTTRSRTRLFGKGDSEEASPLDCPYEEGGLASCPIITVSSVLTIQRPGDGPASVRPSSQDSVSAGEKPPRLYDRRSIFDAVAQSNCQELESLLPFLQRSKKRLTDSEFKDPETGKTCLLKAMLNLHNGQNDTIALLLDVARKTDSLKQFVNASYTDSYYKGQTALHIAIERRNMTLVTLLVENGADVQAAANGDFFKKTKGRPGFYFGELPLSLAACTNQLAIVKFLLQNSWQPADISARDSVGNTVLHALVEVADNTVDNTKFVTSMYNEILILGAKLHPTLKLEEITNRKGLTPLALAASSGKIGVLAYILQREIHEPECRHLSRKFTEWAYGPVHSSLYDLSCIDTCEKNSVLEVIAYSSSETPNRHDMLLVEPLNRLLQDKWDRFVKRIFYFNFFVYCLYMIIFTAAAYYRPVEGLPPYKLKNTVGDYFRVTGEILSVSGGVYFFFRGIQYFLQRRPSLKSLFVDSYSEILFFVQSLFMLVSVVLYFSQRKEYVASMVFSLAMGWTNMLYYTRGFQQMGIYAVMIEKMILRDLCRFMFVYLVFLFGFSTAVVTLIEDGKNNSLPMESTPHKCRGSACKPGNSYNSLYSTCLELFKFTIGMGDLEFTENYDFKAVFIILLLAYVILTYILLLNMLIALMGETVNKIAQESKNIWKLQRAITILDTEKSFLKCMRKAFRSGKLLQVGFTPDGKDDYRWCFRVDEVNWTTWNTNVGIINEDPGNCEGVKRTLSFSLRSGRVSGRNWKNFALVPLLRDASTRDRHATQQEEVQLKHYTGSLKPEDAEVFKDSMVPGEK

Row | SMILES | Ki [1] [nM] | Ki [2] [nM]
1 | C=C(C)[C@]12C[C@@H](C)[C@@]34O[C@](Cc5ccccc5)(O[C@@H]1[C@@H]3C(COC(=O)Cc1cc(I)c(O)c(OC)c1)=CC[C@@H]1C(=O)C(C)=C[C@H]14)O2 [5'-IODORESINIFERATOXIN] | 0.39 | 6.7
2 | Oc1cc2c(cc1O)CN(C(=S)NCCc1ccc(Cl)cc1)CCC2 [N-[2-(4-chlorophenyl)ethyl]-7,8-dihydroxy-2,3,4,5-tetrahydro-1H-2-benzazepine-2-carbothioamide] | 4300 | 
